Source: patent US5972894A, “Peptides having potassium channel opener activity” (Cytran, Inc., priority 1997, dated 1999)
Residues, ends and D or L forms follow the SMILES beside them.

Columns and labels:
[1] = system: Smooth Muscle Cells of Rat Portal Vein; assay: Spontaneous contractile activity of rat portal vein smooth muscle specimens; type: cell-based; conditions: 10^-6 g/ml
Procedure: Rat portal vein SMS samples were surgically isolated from random bred rats weighing 200-250 g. The suitability of each isolated rat portal vein SMS was established by measuring the spontaneous contraction response and its contractile response of the specimen to potassium chloride (KCl) as follows. Each isolated SMS was placed into an organ bath with standard Krebs-Henseleit (KH) solution at 35° C. Then, 0.5 ml of physiological saline were added into the organ bath. In this procedure, one end of the smooth muscle strip was fixed, while the other end of the muscle strip was connected with a probe which transmitted contraction-induced signals to an analog-to-digital converter. The spontaneous contraction curve for each SMS was recorded by taking repeated measurements over a 1-minute period. Next, 0.5 ml of a 600 mM solution of KCl in physiological saline was added to the SMS sample/organ bath to achieve a final concentration of 60 mM KCl. KCl induces contraction of rat portal vein tissue at a fmal tissue concentration of about 60 mM.
The KCl-induced contraction curve for each specimen sample was then recorded over the next 5-minute period. […] During this stabilization period, the spontaneous contraction curve for each SMS was verified by monitoring the data obtained from analog-to-digital converter.
To each SMS in the organ bath prepared according to Steps 2 and 3 above, 0.5 ml of physiological saline was added, and the spontaneous contraction curve was recorded for 1 minute. Each spontaneous contraction curve served as baseline (control) curve for comparison with the respective spontaneous contraction of each SMS in the presence of a test substance or reference substance.
Spontaneous contraction curve values for each SMS were recorded by making repetitive measurements of the spontaneous contractile activity of each sample at 2, 5, 10, and 15 minutes after the addition of the test or reference substance to each SMS/organ bath. Next, 0.5 ml of a solution of 600 mM solution of KCl in […] in the organ bath until a final concentration of 60 mM KCl was achieved. The contractile activity of each SMS was then measured for 5 minutes.

mice = assay: Chloroform-induced arrhythmia; type: in vivo
Procedure: Each mouse in the study was treated by intraperitoneal injection of a dose of a test or control substance 15 minutes prior to the administration of a deep chloroform anesthesia. A test or control substance was then administered to each mouse. […] Novocainamide, a known antiarrhythmic agent, served as the positive control substance and was administered to mice in the positive control group at a dose of 240 mg/kg. Physiological saline served as the negative control substance and was administered to the mice in the negative control group.
Chloroform anesthesia was administered to each mouse by placing the mouse in an airtight glass container with cotton wool soaked in 20 ml of absolute chloroform. At the moment of respiratory arrest, the mouse was removed from the jar and electrocardiogram (ECG) monitoring (standard lead II) was initiated and continued for 30 seconds. […] An antiarrhythmic activity for a particular dose of a test substance is pharmaceutically acceptable if 30% of the animals in a test group show the latter test results (i.e., namely, no sign of ventricular paroxysmal rhythm disturbances and heart rate below 100 beats per 30 seconds within 30 seconds following the respiratory arrest).

rats = assay: Arterial blood pressure in anesthetized rats; type: in vivo
Procedure: White random-bred male rats weighing approximately 200 g were employed for this study. Each dose of each respective test or control substance was administered to a group of five rats. GE and VT were employed as test substances and were administered intravenously at doses of 0.01, 0.1, 1.0, and 10.0 mg/kg. Physiological saline (0.2 ml) served as the negative control substance. The ganglionic blocking agent, pentamine, served as the positive control substance and was tested at a dose of 5 mg/kg. Following administration of the test substance, positive control substance, or negative control substance, the arterial blood pressure of each animal was monitored.
Prior to administration of the test or control substance, each animal was anesthetized with Chloralose and then both its carotid artery and jugular vein were catheterized. The carotid catheter was connected to an electronic manometer attached to a computer recorder through an analog-to-digital converter. The mean basal level of the arterial blood pressure was determined as follows: For a period of 30 seconds, the digital signal pertaining to the arterial blood pressure was recorded at 1-second intervals. The mean value of these thirty individual measurements was then determined and recorded.
After determining the mean basal level of the arterial blood pressure, a particular dose of the test or control substance was administered in a volume of 0.2 ml of physiological saline to an animal through the jugular venous catheter. Measurements of the arterial blood pressure were then taken during the next 1.5 hours as follows: (i) during the first 5 minutes, the arterial blood pressure was being monitored continuously and mean values were calculated electronically and recorded at each of the ten different 30-second intervals (i.e., 30th second, 60th second, etc.); (ii) thereafter, mean values of the arterial blood pressure were calculated at the first seconds of 10th minute, 15th minute, 30th minute, 45th minute, 60th minute, 75th minute, and 90th minute after administration of the respective test or control substance.

[2] = 0.001 mg/kg i.p. 15 min before chloroform
[3] = 0.01 mg/kg i.p. 15 min before chloroform
[4] = 0.1 mg/kg i.p. 15 min before chloroform
[5] = 1.0 mg/kg i.p. 15 min before chloroform
[6] = 10.0 mg/kg i.p. 15 min before chloroform

NCC(=O)N[C@@H](CCC(=O)O)C(=O)O [GE, L-Glycyl-L-Glutamic acid] (H-Gly-Glu-OH)
effect on spontaneous contractions (amplitude and area under curve) [1]: appreciably reduced the amplitude of and area under the contraction curve | Amplitude of spontaneous contraction (% of Control) ([1]; 2 min after application): 114.93% | Area Under Curve of spontaneous contraction (% of Control) ([1]; 2 min after application): 134.77% | Amplitude of spontaneous contraction (% of Control) ([1]; 5 min after application): 75.56% | Area Under Curve of spontaneous contraction (% of Control) ([1]; 5 min after application): 87.51% | Amplitude of spontaneous contraction (% of Control) ([1]; 10 min after application): 60.37% | Area Under Curve of spontaneous contraction (% of Control) ([1]; 10 min after application): 70.07% | Amplitude of spontaneous contraction (% of Control) ([1]; 15 min after application): 63.94% | Area Under Curve of spontaneous contraction (% of Control) ([1]; 15 min after application): 75.08% | Antiarrhythmic Effect (no. animals) % (mice; [2]): 11.1% | Antiarrhythmic Effect (no. animals) abs (mice; [2]): 1 | Result (mice; [2]): No effect | Antiarrhythmic Effect (no. animals) % (mice; [3]): 44.4% | Antiarrhythmic Effect (no. animals) abs (mice; [3]): 4 | Result (mice; [3]): Antiarrhythmic effect | Antiarrhythmic Effect (no. animals) % (mice; [4]): 44.4% | Antiarrhythmic Effect (no. animals) abs (mice; [4]): 4 | Result (mice; [4]): Antiarrhythmic effect | Antiarrhythmic Effect (no. animals) % (mice; [5]): 55.6% | Antiarrhythmic Effect (no. animals) abs (mice; [5]): 5 | Result (mice; [5]): Antiarrhythmic effect | prevention of chloroform-induced ventricular arrhythmias (mice; 0.01, 0.1, 1.0, or 10.0 mg/kg): prevent the development of ventricular arrhythmias | Antiarrhythmic Effect (no. animals) % (mice; [6]): 66.7% | Antiarrhythmic Effect (no. animals) abs (mice; [6]): 6 | Result (mice; [6]): Antiarrhythmic effect | Arterial Blood Pressure (Basal Level = 100.00) (rats; 0.01 mg/kg i.v., 1 min): 101.02% | Arterial Blood Pressure (Basal Level = 100.00) (rats; 0.01 mg/kg i.v., 2 min): 102.72% | Arterial Blood Pressure (Basal Level = 100.00) (rats; 0.01 mg/kg i.v., 3 min): 103.88% | Arterial Blood Pressure (Basal Level = 100.00) (rats; 0.01 mg/kg i.v., 4 min): 99.77% | Arterial Blood Pressure (Basal Level = 100.00) (rats; 0.01 mg/kg i.v., 5 min): 102.90% | Arterial Blood Pressure (Basal Level = 100.00) (rats; 0.01 mg/kg i.v., 10 min): 96.17% | Arterial Blood Pressure (Basal Level = 100.00) (rats; 0.01 mg/kg i.v., 15 min): 97.01% | Arterial Blood Pressure (Basal Level = 100.00) (rats; 0.01 mg/kg i.v., 30 min): 98.26% | Arterial Blood Pressure (Basal Level = 100.00) (rats; 0.01 mg/kg i.v., 45 min): 99.01% | Arterial Blood Pressure (Basal Level = 100.00) (rats; 0.01 mg/kg i.v., 60 min): 93.29% | Arterial Blood Pressure (Basal Level = 100.00) (rats; 0.01 mg/kg i.v., 75 min): 94.15% | Arterial Blood Pressure (Basal Level = 100.00) (rats; 0.01 mg/kg i.v., 90 min): 102.09% | Arterial Blood Pressure (Basal Level = 100.00) (rats; 0.1 mg/kg i.v., 1 min): 96.00% | Arterial Blood Pressure (Basal Level = 100.00) (rats; 0.1 mg/kg i.v., 2 min): 96.60% | Arterial Blood Pressure (Basal Level = 100.00) (rats; 0.1 mg/kg i.v., 3 min): 97.66% | Arterial Blood Pressure (Basal Level = 100.00) (rats; 0.1 mg/kg i.v., 4 min): 97.32% | Arterial Blood Pressure (Basal Level = 100.00) (rats; 0.1 mg/kg i.v., 5 min): 98.31% | Arterial Blood Pressure (Basal Level = 100.00) (rats; 0.1 mg/kg i.v., 10 min): 96.04% | Arterial Blood Pressure (Basal Level = 100.00) (rats; 0.1 mg/kg i.v., 15 min): 94.98% | Arterial Blood Pressure (Basal Level = 100.00) (rats; 0.1 mg/kg i.v., 30 min): 93.56% | Arterial Blood Pressure (Basal Level = 100.00) (rats; 0.1 mg/kg i.v., 45 min): 80.15% | Arterial Blood Pressure (Basal Level = 100.00) (rats; 0.1 mg/kg i.v., 60 min): 83.03% | Arterial Blood Pressure (Basal Level = 100.00) (rats; 0.1 mg/kg i.v., 75 min): 83.37% | Arterial Blood Pressure (Basal Level = 100.00) (rats; 0.1 mg/kg i.v., 90 min): 84.50% | Arterial Blood Pressure (Basal Level = 100.00) (rats; 1.0 mg/kg i.v., 1 min): 70.32% | Arterial Blood Pressure (Basal Level = 100.00) (rats; 1.0 mg/kg i.v., 2 min): 84.63% | Arterial Blood Pressure (Basal Level = 100.00) (rats; 1.0 mg/kg i.v., 3 min): 90.73% | Arterial Blood Pressure (Basal Level = 100.00) (rats; 1.0 mg/kg i.v., 4 min): 93.72% | Arterial Blood Pressure (Basal Level = 100.00) (rats; 1.0 mg/kg i.v., 5 min): 98.11% | Arterial Blood Pressure (Basal Level = 100.00) (rats; 1.0 mg/kg i.v., 10 min): 94.67% | Arterial Blood Pressure (Basal Level = 100.00) (rats; 1.0 mg/kg i.v., 15 min): 92.70% | Arterial Blood Pressure (Basal Level = 100.00) (rats; 1.0 mg/kg i.v., 30 min): 90.58% | Arterial Blood Pressure (Basal Level = 100.00) (rats; 1.0 mg/kg i.v., 45 min): 88.43% | Arterial Blood Pressure (Basal Level = 100.00) (rats; 1.0 mg/kg i.v., 60 min): 88.85% | Arterial Blood Pressure (Basal Level = 100.00) (rats; 1.0 mg/kg i.v., 75 min): 90.07% | Arterial Blood Pressure (Basal Level = 100.00) (rats; 1.0 mg/kg i.v., 90 min): 89.82% | Arterial Blood Pressure (Basal Level = 100.00) (rats; 10.0 mg/kg i.v., 1 min): 94.68% | Arterial Blood Pressure (Basal Level = 100.00) (rats; 10.0 mg/kg i.v., 2 min): 100.17% | Arterial Blood Pressure (Basal Level = 100.00) (rats; 10.0 mg/kg i.v., 3 min): 101.63% | Arterial Blood Pressure (Basal Level = 100.00) (rats; 10.0 mg/kg i.v., 4 min): 101.22% | Arterial Blood Pressure (Basal Level = 100.00) (rats; 10.0 mg/kg i.v., 5 min): 100.20% | Arterial Blood Pressure (Basal Level = 100.00) (rats; 10.0 mg/kg i.v., 10 min): 95.61% | Arterial Blood Pressure (Basal Level = 100.00) (rats; 10.0 mg/kg i.v., 15 min): 91.27% | Arterial Blood Pressure (Basal Level = 100.00) (rats; 10.0 mg/kg i.v., 30 min): 88.24% | Arterial Blood Pressure (Basal Level = 100.00) (rats; 10.0 mg/kg i.v., 45 min): 89.56% | Arterial Blood Pressure (Basal Level = 100.00) (rats; 10.0 mg/kg i.v., 60 min): 85.99% | Arterial Blood Pressure (Basal Level = 100.00) (rats; 10.0 mg/kg i.v., 75 min): 87.12% | Arterial Blood Pressure (Basal Level = 100.00) (rats; 10.0 mg/kg i.v., 90 min): 78.69% | effect on mean arterial blood pressure (rats; after about 60 to 90 minutes): moderate, but delayed, decrease in the mean arterial blood pressure
